Measured values published in ChEMBL document CHEMBL3576804, “Novel Potent Orthosteric Antagonist of ASIC1a Prevents NMDAR-Dependent LTP Induction” (J Med Chem, 2015).
The source made the active and inactive calls. The rule behind the calls is not given here.

What was measured:
Format in all cases: cell-based
[1] = target: T1, Acid-sensing ion channel 1 (Homo sapiens) (UniProt P78348); assay: Inhibition of human ASIC1a endogenously expressed in HEK293 cells clamped at -100 mV gated ionic current at 10 uM by standard whole cell patch clamp assay
T1 sequence (whole entry): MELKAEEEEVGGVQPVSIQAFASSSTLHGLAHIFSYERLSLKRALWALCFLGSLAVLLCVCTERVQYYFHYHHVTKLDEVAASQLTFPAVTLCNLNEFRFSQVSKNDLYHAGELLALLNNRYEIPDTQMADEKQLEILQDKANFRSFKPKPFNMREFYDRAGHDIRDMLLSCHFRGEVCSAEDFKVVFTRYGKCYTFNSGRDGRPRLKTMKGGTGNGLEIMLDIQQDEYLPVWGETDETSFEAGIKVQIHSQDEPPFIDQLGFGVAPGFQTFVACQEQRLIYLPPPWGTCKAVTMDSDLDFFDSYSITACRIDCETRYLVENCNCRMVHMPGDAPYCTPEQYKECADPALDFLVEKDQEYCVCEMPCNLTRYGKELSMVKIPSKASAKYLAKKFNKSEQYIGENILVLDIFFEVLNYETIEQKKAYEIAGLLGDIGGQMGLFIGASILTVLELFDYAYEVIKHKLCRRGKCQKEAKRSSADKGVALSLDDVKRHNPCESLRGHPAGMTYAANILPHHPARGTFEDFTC

[2] = target: T1, Acid-sensing ion channel 1 (Homo sapiens); assay: Inhibition of human ASIC1a endogenously expressed in HEK293 cells clamped at -20 mV gated ionic current at 10 uM by standard whole cell patch clamp assay
[3] = target: T1, Acid-sensing ion channel 1 (Homo sapiens); assay: Inhibition of human ASIC1a endogenously expressed in HEK293 cells clamped at -100 mV gated ionic current at 10 uM in presence of cellular membrane depolarization by standard whole cell patch clamp assay
[4] = target: T1, Acid-sensing ion channel 1 (Homo sapiens); assay: Inhibition of human ASIC1a endogenously expressed in HEK293 cells clamped at -100 mV gated ionic current at 100 uM at pH 5.0 by standard whole cell patch clamp assay
[5] = target: T1, Acid-sensing ion channel 1 (Homo sapiens); assay: Inhibition of human ASIC1a endogenously expressed in HEK293 cells clamped at -100 mV gated ionic current at 100 uM at pH 6.7 by standard whole cell patch clamp assay
[6] = target: T1, Acid-sensing ion channel 1 (Homo sapiens); assay: Inhibition of human ASIC1a endogenously expressed in HEK293 cells clamped at -100 mV gated ionic current at 10 uM at pH 6.7 by standard whole cell patch clamp assay
[7] = target: T1, Acid-sensing ion channel 1 (Homo sapiens); assay: Reversible inhibition of human ASIC1a endogenously expressed in HEK293 cells clamped at -100 mV gated ionic current at 100 nM to 100 uM at pH 6.7 by standard whole cell patch clamp assay
[8] = target: T1, Acid-sensing ion channel 1 (Homo sapiens); assay: Inhibition of human ASIC1a endogenously expressed in HEK293 cells clamped at -100 mV gated ionic current at 10 uM at pH 5.0 by standard whole cell patch clamp assay
[9] = target: T1, Acid-sensing ion channel 1 (Homo sapiens); assay: Reversible inhibition of human ASIC1a endogenously expressed in HEK293 cells clamped at -100 mV gated ionic current at 100 nM to 100 uM at pH 5.0 by standard whole cell patch clamp assay
[10] = target: T1, Acid-sensing ion channel 1 (Homo sapiens); assay: Inhibition of human ASIC1a endogenously expressed in HEK293 cells clamped at -100 mV gated ionic current at 100 nM at pH 5.0 by standard whole cell patch clamp assay
[11] = target: T1, Acid-sensing ion channel 1 (Homo sapiens); assay: Inhibition of human ASIC1a endogenously expressed in HEK293 cells clamped at -100 mV gated ionic current at 100 nM at pH 6.7 by standard whole cell patch clamp assay

Row | inhibition [4] [%] | inhibition [5] [%] | inhibition [6] [%] | inhibition [7] | inhibition [8] [%] | inhibition [9] | inhibition [10] [%] | inhibition [11] [%] | SMILES | inhibition [1] [%] | inhibition [2] [%] | inhibition [3]
1 | – | – | – | – | – | – | – | – | N=C(N)NC(=O)c1nc(Cl)c(N)nc1N | 41.3 | 60.7 | inactive
2 | 41 | 49 | – | – | – | – | – | – | CCN(CC)c1ccc2cc(C(=N)N)c(=O)oc2c1 | – | – | –
3 | 28.8 | 3.7 | 22.1 | Active | 65.7 | Active | 96.1 | 68.9 | CCN(CC)CCN(Cc1ccccc1)c1ccc2cc(C(=N)N)c(=O)oc2c1 | – | – | –
